Assay results taken from ChEMBL document CHEMBL3826929, “Discovery and Preclinical Evaluation of BMS-711939, an Oxybenzylglycine Based PPARα Selective Agonist” (ACS Med Chem Lett, 2016).

Assays:
[1] = AUC (0 to 8 hrs) in Balb/c mouse at 5 mg/kg, iv; format: ADME, organism-based; set-up: dose 5 mg/kg, time < 8 hr, route intravenous; conditions: in vivo
Cytochrome P450 2C19 = Cytochrome P450 2C19 (Homo sapiens, UniProt P33261); assay: Inhibition of CYP2C19 in human TC5 cells; format: ADME, cell-based
[2] = AUC (0 to 8 hrs) in Sprague-Dawley rat at 4 mg/kg, iv; format: ADME, organism-based; set-up: time < 8 hr, dose 4 mg/kg, route intravenous; conditions: in vivo
Syrian golden hamster [3] = assay: Decrease in plasma LDL cholesterol level in high fat-diet fed syrian golden hamster model of dyslipidemia at 10 mg/kg administered qd through oral gavage measured after 21 days by FPLC analysis relative to control; format: functional, Mesocricetus auratus; set-up: scale not given: the % may be the effect or the level left
[4] = Plasma clearance in dog at 1 mg/kg, iv; format: ADME, organism-based, Canis lupus familiaris
[5] = Half life in Sprague-Dawley rat at 4 mg/kg, iv; format: ADME, organism-based; conditions: in vivo
[6] = Tmax in dog at 2 mg/kg, po; format: ADME, organism-based, Canis lupus familiaris; conditions: in vivo
Mus musculus [7] = assay: Decrease in triglyceride level in transgenic mouse expressing human ApoA1 at 10 mg/kg administered qd through oral gavage measured after 10 days relative to vehicle control; format: functional; set-up: scale not given: the % may be the effect or the level left
Mus musculus [8] = assay: Decrease in triglyceride level in transgenic mouse expressing human ApoA1 at 50 mg/kg administered qd through oral gavage measured after 10 days relative to vehicle control; format: functional; set-up: scale not given: the % may be the effect or the level left
[9] = Protein binding in dog plasma; format: ADME, cell-free, Canis lupus familiaris; conditions: read-out: PPB (converted)
Mus musculus [10] = assay: Increase in ApoA1 level in transgenic mouse expressing human ApoA1 at 10 mg/kg administered qd through oral gavage measured after 10 days relative to vehicle-treated control; format: functional
[11] = target: T1, Peroxisome proliferator-activated receptor alpha (Homo sapiens, UniProt Q07869); assay: Agonist activity at full length human PPAR-alpha transfected in human HepG2 cells by luciferase reporter gene assay; format: cell-based
T1 sequence (Q07869 whole entry): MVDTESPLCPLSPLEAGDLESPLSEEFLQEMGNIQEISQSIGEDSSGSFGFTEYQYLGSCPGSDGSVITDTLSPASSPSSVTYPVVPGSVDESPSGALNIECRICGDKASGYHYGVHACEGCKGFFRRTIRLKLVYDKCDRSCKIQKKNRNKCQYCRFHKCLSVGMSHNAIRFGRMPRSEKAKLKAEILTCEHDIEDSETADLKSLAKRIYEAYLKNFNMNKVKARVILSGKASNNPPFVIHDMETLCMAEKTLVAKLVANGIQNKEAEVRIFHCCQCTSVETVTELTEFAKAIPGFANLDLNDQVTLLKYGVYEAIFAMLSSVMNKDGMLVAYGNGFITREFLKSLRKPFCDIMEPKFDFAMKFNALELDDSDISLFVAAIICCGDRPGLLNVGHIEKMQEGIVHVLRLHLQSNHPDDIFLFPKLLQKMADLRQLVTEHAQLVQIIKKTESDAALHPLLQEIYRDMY

[12] = Protein binding in mouse plasma; format: ADME, cell-free; conditions: read-out: PPB (converted)
Salmonella typhimurium = assay: Genotoxicity in Salmonella typhimurium TA100 up to 5000 ug by Ames test; format: toxicity, organism-based; conditions: salmonella enterica subsp. enterica serovar typhimurium
[13] = Protein binding in rat plasma; format: ADME, cell-free; conditions: read-out: PPB (converted)
[14] = AUC (0 to 8 hrs) in cynomolgus monkey at 2 mg/kg, po; format: ADME, organism-based, Macaca fascicularis; set-up: time < 8 hr, dose 2 mg/kg, route oral; conditions: in vivo
[15] = Tmax in cynomolgus monkey at 2 mg/kg, po; format: ADME, organism-based, Macaca fascicularis; conditions: in vivo
[16] = Agonist activity at hamster PPAR-alpha; set-up: species or system Cricetinae
Cytochrome P450 2C9 = Cytochrome P450 2C9 (Homo sapiens, UniProt P11712); assay: Inhibition of CYP2C9 (unknown origin); format: ADME
CHO = assay: Clastogenecity in CHO cells; format: ADME, cell-based, Cricetulus griseus; conditions: chinese hamster
Mus musculus [17] = assay: Increase in serum ApoA1 level in transgenic mouse expressing human ApoA1 compound administered qd through oral gavage measured after 10 days; format: functional, organism-based
[18] = Oral bioavailability in cynomolgus monkey at 2 mg/kg; format: ADME, organism-based, Macaca fascicularis; conditions: in vivo
Syrian golden hamster [19] = assay: Decrease in plasma LDL cholesterol level in high fat-diet fed syrian golden hamster model of dyslipidemia administered qd through oral gavage measured after 21 days by FPLC analysis relative to control; format: functional, organism-based; conditions: Mesocricetus auratus
[20] = target: T2, Peroxisome proliferator-activated receptor alpha (Homo sapiens) (UniProt Q07869); assay: Intrinsic activity at PPAR-alpha (unknown origin) relative to fenofibric acid
T2 sequence (whole entry): T1 sequence (Q07869 whole entry)

Syrian golden hamster [21] = assay: Decrease in liver triglyceride level in high fat-diet fed syrian golden hamster model of dyslipidemia administered qd through oral gavage measured after 21 days by FPLC analysis; format: functional, organism-based; conditions: Mesocricetus auratus
[22] = target: Voltage-gated inwardly rectifying potassium channel KCNH2 (Homo sapiens, UniProt Q12809); assay: Inhibition of human ERG by flux-based assay
[23] = target: T3, Peroxisome proliferator-activated receptor gamma (Homo sapiens, UniProt P37231); assay: Agonist activity at full length human PPAR-gamma transfected in human HepG2 cells by luciferase reporter gene assay; format: cell-based
T3 sequence (P37231 whole entry): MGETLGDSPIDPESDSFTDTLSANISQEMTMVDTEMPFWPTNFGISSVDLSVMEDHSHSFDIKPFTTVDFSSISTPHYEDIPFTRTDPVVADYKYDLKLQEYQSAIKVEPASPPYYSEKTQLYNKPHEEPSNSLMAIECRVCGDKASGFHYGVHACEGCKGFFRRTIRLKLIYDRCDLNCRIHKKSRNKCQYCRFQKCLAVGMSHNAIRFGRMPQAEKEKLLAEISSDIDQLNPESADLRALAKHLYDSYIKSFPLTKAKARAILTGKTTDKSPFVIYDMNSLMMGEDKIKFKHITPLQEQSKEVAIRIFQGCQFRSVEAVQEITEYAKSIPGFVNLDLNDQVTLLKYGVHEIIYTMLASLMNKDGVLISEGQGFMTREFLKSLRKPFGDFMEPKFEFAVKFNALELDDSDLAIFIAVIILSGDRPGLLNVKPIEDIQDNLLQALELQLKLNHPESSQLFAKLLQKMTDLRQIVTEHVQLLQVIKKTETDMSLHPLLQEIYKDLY

[24] = Cmax in Balb/c mouse at 10 mg/kg, po; format: ADME, organism-based; set-up: dose 10 mg/kg, route oral; conditions: in vivo
[25] = Half life in cynomolgus monkey at 1 mg/kg, iv; format: ADME, organism-based, Macaca fascicularis; conditions: in vivo
[26] = Volume of distribution at steady state in Sprague-Dawley rat at 4 mg/kg, iv; format: ADME, organism-based; conditions: in vivo, read-out: Vdss
[27] = Volume of distribution at steady state in Balb/c mouse at 5 mg/kg, iv; format: ADME, organism-based; conditions: in vivo, read-out: Vdss
Syrian golden hamster [28] = assay: Decrease in liver cholesterol level in high fat-diet fed syrian golden hamster model of dyslipidemia at 3 mg/kg administered qd through oral gavage measured after 21 days by FPLC analysis relative to control; format: functional, Mesocricetus auratus; set-up: scale not given: the % may be the effect or the level left
[29] = Cmax in Sprague-Dawley rat at 8 mg/kg, po; format: ADME, organism-based; set-up: dose 8 mg/kg, route oral; conditions: in vivo
Liver X receptor = Liver X receptor (Homo sapiens, UniProt Q13133+P55055); assay: Agonist activity at human LXR by transactivation assay; format: protein assay
[30] = Plasma clearance in Sprague-Dawley rat at 4 mg/kg, iv; format: ADME, organism-based
[31] = Cmax in dog at 2 mg/kg, po; format: ADME, organism-based, Canis lupus familiaris; set-up: dose 2 mg/kg, route oral; conditions: in vivo
Syrian golden hamster [32] = assay: Decrease in liver triglyceride level in high fat-diet fed syrian golden hamster model of dyslipidemia at 1 mg/kg administered qd through oral gavage measured after 21 days by FPLC analysis relative to control; format: functional, Mesocricetus auratus; set-up: scale not given: the % may be the effect or the level left
Cytochrome P450 1A2 = Cytochrome P450 1A2 (Homo sapiens, UniProt P05177); assay: Inhibition of CYP1A2 (unknown origin); format: ADME
Sequence of Cytochrome P450 1A2 (P05177 whole entry): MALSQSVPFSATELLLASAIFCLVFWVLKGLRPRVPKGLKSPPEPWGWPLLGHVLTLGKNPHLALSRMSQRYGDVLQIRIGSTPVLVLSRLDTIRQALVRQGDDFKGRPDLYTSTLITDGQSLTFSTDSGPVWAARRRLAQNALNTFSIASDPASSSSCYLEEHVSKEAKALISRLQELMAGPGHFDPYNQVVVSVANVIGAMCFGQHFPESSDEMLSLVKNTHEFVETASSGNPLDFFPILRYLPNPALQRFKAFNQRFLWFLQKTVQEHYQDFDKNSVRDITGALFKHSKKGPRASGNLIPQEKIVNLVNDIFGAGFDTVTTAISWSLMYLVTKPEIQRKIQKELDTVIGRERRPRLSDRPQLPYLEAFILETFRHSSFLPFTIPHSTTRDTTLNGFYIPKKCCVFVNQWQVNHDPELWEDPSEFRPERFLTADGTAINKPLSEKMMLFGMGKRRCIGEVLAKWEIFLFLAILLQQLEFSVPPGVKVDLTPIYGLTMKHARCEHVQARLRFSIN

Sequence of Cytochrome P450 2C9 (P11712 whole entry): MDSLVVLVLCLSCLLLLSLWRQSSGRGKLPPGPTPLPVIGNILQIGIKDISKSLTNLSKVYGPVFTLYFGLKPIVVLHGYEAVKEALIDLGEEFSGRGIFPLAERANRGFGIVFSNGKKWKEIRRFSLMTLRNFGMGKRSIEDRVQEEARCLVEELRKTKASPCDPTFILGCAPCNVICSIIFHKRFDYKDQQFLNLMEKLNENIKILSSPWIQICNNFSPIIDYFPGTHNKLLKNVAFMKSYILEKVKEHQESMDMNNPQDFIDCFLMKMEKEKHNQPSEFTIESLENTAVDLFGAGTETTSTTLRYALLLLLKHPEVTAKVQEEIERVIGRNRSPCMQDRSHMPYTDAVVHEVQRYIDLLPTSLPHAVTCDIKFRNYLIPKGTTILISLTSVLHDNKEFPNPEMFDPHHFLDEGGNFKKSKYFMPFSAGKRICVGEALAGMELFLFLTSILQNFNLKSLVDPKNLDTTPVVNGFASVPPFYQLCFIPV
Sequence of Voltage-gated inwardly rectifying potassium channel KCNH2 (Q12809 whole entry): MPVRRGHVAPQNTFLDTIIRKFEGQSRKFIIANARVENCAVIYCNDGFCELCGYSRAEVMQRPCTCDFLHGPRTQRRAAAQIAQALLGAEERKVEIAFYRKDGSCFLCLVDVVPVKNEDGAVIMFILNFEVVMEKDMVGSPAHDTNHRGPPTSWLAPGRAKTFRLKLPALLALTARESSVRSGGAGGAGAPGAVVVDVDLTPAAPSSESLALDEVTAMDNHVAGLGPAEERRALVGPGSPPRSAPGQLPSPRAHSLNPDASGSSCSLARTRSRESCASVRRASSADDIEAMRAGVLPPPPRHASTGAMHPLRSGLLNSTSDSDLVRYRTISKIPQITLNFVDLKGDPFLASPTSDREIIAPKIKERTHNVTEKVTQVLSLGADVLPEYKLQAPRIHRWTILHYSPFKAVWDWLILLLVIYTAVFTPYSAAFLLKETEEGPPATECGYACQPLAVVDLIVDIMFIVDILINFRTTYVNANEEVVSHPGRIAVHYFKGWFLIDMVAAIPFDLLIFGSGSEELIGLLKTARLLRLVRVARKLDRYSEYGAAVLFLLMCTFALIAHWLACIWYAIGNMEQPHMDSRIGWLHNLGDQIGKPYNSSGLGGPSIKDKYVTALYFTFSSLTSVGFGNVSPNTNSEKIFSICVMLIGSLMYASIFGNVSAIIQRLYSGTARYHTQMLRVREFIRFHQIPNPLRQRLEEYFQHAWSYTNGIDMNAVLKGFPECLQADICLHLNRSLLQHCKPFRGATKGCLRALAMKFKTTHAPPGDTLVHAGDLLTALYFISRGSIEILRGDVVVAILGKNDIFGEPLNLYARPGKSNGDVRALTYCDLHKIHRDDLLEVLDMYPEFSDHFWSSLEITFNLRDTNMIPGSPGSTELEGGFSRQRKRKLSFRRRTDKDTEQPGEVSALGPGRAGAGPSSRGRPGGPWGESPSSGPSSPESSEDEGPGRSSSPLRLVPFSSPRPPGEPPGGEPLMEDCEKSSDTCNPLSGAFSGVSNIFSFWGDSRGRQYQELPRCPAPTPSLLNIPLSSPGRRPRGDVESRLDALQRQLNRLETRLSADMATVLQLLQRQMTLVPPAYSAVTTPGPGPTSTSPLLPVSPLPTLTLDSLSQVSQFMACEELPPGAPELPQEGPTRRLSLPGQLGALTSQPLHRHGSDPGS
Sequence of Cytochrome P450 2C19 (P33261 whole entry): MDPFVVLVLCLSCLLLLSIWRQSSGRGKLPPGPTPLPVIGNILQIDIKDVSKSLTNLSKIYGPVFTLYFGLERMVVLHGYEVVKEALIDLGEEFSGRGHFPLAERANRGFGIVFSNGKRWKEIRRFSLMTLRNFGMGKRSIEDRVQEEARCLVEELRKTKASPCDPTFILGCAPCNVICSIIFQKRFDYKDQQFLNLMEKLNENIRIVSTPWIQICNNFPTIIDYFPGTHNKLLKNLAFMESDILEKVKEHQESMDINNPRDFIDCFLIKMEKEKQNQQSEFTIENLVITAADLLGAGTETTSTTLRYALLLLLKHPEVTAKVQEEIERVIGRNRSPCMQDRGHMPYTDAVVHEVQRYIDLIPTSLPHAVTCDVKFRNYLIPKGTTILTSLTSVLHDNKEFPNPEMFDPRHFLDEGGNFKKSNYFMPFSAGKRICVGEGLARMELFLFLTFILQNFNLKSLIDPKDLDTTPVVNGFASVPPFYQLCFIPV

AUC(0-t) at 8 h [1]: 13 µM·h
AUC(0-t) at 8 h [2]: 9.4 µM·h
clearance [4]: 10.7 mL/min/kg
half-life [5]: 3.3 h
Tmax [6]: 0.8 h
fraction unbound [9]: 0.005
EC50 [11]: 0.005 µM
fraction unbound [12]: 0.002
fraction unbound [13]: 0.004
AUC(0-t) at 8 h [14]: 8.5 µM·h
Tmax [15]: 0.9 h
EC50 [16]: 0.178 µM
IC50 (Cytochrome P450 2C9): > 40 µM
bioavailability [18]: 65%
Intrinsic activity [20]: > 50%
EC50 [23]: > 1.61 µM
Cmax [24]: 22.7 µM
half-life [25]: 26.3 h
Vd [26]: 2.2 L/kg
Vd [27]: 0.6 L/kg
Cmax [29]: 14.9 µM
EC50 (Liver X receptor): > 25 µM
clearance [30]: 15.3 mL/min/kg
Cmax [31]: 1.5 µM
IC50 (Cytochrome P450 1A2): > 40 µM
SMILES: COC(=O)N(CC(=O)O)Cc1cc(OCc2nc(-c3ccc(Cl)cc3)oc2C)ccc1F
IC50 (Cytochrome P450 2C19): > 150 µM
Activity (Syrian golden hamster [3]): 87%
Activity (Mus musculus [7]): 23.5%
Activity (Mus musculus [8]): 58.1%
Activity (Mus musculus [10]): 400%
Activity (Salmonella typhimurium): Non-toxic
Activity (CHO): Non-toxic
Activity (Mus musculus [17]): Dose-dependent effect
Activity (Syrian golden hamster [19]): Dose-dependent effect
Activity (Syrian golden hamster [21]): Dose-dependent effect
IC50 [22]: > 80 µM
Activity (Syrian golden hamster [28]): 56.8%
Activity (Syrian golden hamster [32]): 18.7%
